Assay results from paper PMC6211230, “Assessment of the antiproliferative and apoptotic roles of sulfonamide carbonic anhydrase IX inhibitors in HeLa cancer cell line” (Journal of Enzyme Inhibition and Medicinal Chemistry, 2018).

Experiments:
Assay type in all cases: cell-based, human
HeLa = experiment: WST-1 cytotoxicity, HeLa
Protocol: (§1) Cancer and normal cell lines were purchased from ATCC and stored in liquid nitrogen. HT-29 (colon adenoma cancer), HeLa (cervix adenoma cancer cell), MDA-MB-231 (breast adenoma cancer cell) and HEK-293 (embryonic kidney epithelial cell), PNT-1A (normal prostate cells) cell lines were incubated in DMEM: F-12 and RPMI-1640, including 10% Foetal Bovine Serum (FBS), 100 μg/mL streptomycin/100 IU/mL penicillin, at 37 °C in an incubator containing 5% CO2, 95% air in a humid atmosphere.
(§2) The cytotoxic effects of the substances were evaluated with WST-1 kits (Roche, Germany) in accordance with the manufacturer’s protocols. The cells were plated on 96-well plates (10^4 cells in each well). After incubation for 24 h, the media were discarded and the substances and Cisplatin as the control drug, at doses of 0, 2.5, 5, 10, 25, 50, 100, and 200 μM, were incubated for 24, 48, and 72 h. WST-1 reactive of 10 µl was added to all wells. Following 4 h incubation, the measurements were taken on a plate reader (Spectramax M5) at wavelengths of 450 and 630 nm. Graphs were then created and the IC50 value of each substance was calculated.

PNT-1A = experiment: WST-1 cytotoxicity, PNT-1A normal cells; details: PNT-1A normal cell
Protocol: as §1, §2

HEK-293 = experiment: WST-1 cytotoxicity, HEK-293 normal cells; details: HEK-293 normal cell
Protocol: as §1, §2

HT-29 = experiment: WST-1 cytotoxicity, HT-29
Protocol: as §1, §2

MDA-MB-231 = experiment: WST-1 cytotoxicity, MDA-MB-231
Protocol: as §1, §2

| Structure (SMILES) | IC50 (HeLa; 24 h) [µM] | IC50 (HeLa; 48 h) [µM] | IC50 (HeLa; 72 h) [µM] | IC50 (PNT-1A; 24 h) [µM] | IC50 (PNT-1A; 48 h) [µM] | IC50 (PNT-1A; 72 h) [µM] | IC50 (HEK-293; 24 h) [µM] | IC50 (HEK-293; 48 h) [µM] | IC50 (HEK-293; 72 h) [µM] | IC50 (HT-29; HT-29, 24 h) [µM] | IC50 (HT-29; HT-29, 48 h) [µM] | IC50 (HT-29; HT-29, 72 h) [µM] | IC50 (MDA-MB-231; MDA-MB-231, 24 h) [µM] | IC50 (MDA-MB-231; MDA-MB-231, 48 h) [µM] | IC50 (MDA-MB-231; MDA-MB-231, 72 h) [µM] |
| --- | --- | --- | --- | --- | --- | --- | --- | --- | --- | --- | --- | --- | --- | --- | --- |
| N.N.[Cl][Pt][Cl] [Cisplatin, reference compound] | 28.9 | 7.6 | 6.1 | 13.4 | 11.4 | 8.2 | 29.6 | 14 | 2 | 23.7 | 20 | 16.3 | 21.2 | 10.2 | 7 |
| NS(=O)(=O)c1ccc(CCN=Cc2cc(Cl)cc(Cl)c2O)cc1 [Compound A-2] | 345 | 300 | 123 | 167 | 170 | 100 | 120 | 100 | 65.4 | 234 | 254 | 134 | 125 | 145 | 100 |
| NS(=O)(=O)c1ccc(CCN=Cc2ccccc2O)cc1 [Compound A-3] | 123 | 112 | 76.5 | 45.4 | 43.3 | 23.3 | 98.4 | 65.4 | 32.2 | 143 | 100 | 87.4 | 98.5 | 80.5 | 65.4 |
| NS(=O)(=O)c1ccc(CCNCc2cc(Cl)ccc2O)cc1 [Compound B-1] | 218 | 112 | 98.9 | 593 | 190 | 372 | 324 | 207 | 63.7 | 606 | 63.8 | 91.8 | 492 | 595 | 243 |
| NS(=O)(=O)c1ccc(CCNCc2cc(Cl)cc(Cl)c2O)cc1 [Compound B-2] | 234 | 212 | 154 | 55.4 | 23.2 | 12.3 | 230 | 215 | 120 | 356 | 200 | 155 | 145 | 43.3 | 54.3 |
| NS(=O)(=O)c1ccc(CCNCc2ccccc2O)cc1 [Compound B-3] | 156 | 134 | 45.4 | 100 | 89.4 | 70.4 | 179 | 120 | 45.4 | 560 | 450 | 210 | 345 | 234 | 126 |
